Activity calls are given as the source filed them. How the calls were made is not given here.
Tested on: CCRIS mutagenicity, Ames/micronucleus/aberration tests
Assay: CCRIS mutagenicity studies
[1] = Test System: AMES SALMONELLA TYPHIMURIUM, Strain/Indicator: TA98, Metabolic Activation: NONE, Method: PREINCUBATION
[2] = Test System: AMES SALMONELLA TYPHIMURIUM, Strain/Indicator: TA100, Metabolic Activation: NONE, Method: PREINCUBATION
[3] = Test System: AMES SALMONELLA TYPHIMURIUM, Strain/Indicator: TA1535, Metabolic Activation: NONE, Method: PREINCUBATION
[4] = Test System: AMES SALMONELLA TYPHIMURIUM, Strain/Indicator: TA98, Metabolic Activation: NONE, Method: STANDARD PLATE
[5] = Test System: AMES SALMONELLA TYPHIMURIUM, Strain/Indicator: TA100, Metabolic Activation: NONE, Method: STANDARD PLATE

## N#CCCO
Test System: AMES SALMONELLA TYPHIMURIUM, Strain/Indicator: TA97, Metabolic Activation: HAMSTER, LIVER, S-9, AROCLOR 1254 (10 OR 30%), Method: PREINCUBATION
  mutagenic call: inactive; negative
Test System: AMES SALMONELLA TYPHIMURIUM, Strain/Indicator: TA97, Metabolic Activation: NONE, Method: PREINCUBATION
  mutagenic call: inactive; negative
Test System: AMES SALMONELLA TYPHIMURIUM, Strain/Indicator: TA97, Metabolic Activation: RAT, LIVER, S-9, AROCLOR 1254 (10 OR 30%), Method: PREINCUBATION
  mutagenic call: inactive; negative
Test System: AMES SALMONELLA TYPHIMURIUM, Strain/Indicator: TA98, Metabolic Activation: HAMSTER, LIVER, S-9, AROCLOR 1254 (10 OR 30%), Method: PREINCUBATION
  mutagenic call: inactive; negative
[1]
  mutagenic call: inactive; negative
Test System: AMES SALMONELLA TYPHIMURIUM, Strain/Indicator: TA98, Metabolic Activation: RAT, LIVER, S-9, AROCLOR 1254 (10 OR 30%), Method: PREINCUBATION
  mutagenic call: inactive; negative
Test System: AMES SALMONELLA TYPHIMURIUM, Strain/Indicator: TA100, Metabolic Activation: HAMSTER, LIVER, S-9, AROCLOR 1254 (10 OR 30%), Method: PREINCUBATION
  mutagenic call: inactive; negative
[2]
  mutagenic call: inactive; negative
Test System: AMES SALMONELLA TYPHIMURIUM, Strain/Indicator: TA100, Metabolic Activation: RAT, LIVER, S-9, AROCLOR 1254 (10 OR 30%), Method: PREINCUBATION
  mutagenic call: inactive; negative
Test System: AMES SALMONELLA TYPHIMURIUM, Strain/Indicator: TA1535, Metabolic Activation: HAMSTER, LIVER, S-9, AROCLOR 1254 (10 OR 30%), Method: PREINCUBATION
  mutagenic call: inactive; negative
[3]
  mutagenic call: inactive; negative
Test System: AMES SALMONELLA TYPHIMURIUM, Strain/Indicator: TA1535, Metabolic Activation: RAT, LIVER, S-9, AROCLOR 1254 (10 OR 30%), Method: PREINCUBATION
  mutagenic call: inactive; negative

## [N-]=[N+]=NC[C@H]1O[C@H](O)[C@H](O)[C@@H](O)[C@H]1O
[4]
  mutagenic call: inactive; negative
[5]
  mutagenic call: active; positive

## CN[C@@H]1[C@@H](O)[C@@H](O[C@@H]2[C@@H](O)[C@H](O[C@H]3O[C@H](CN)[C@@H](O)[C@H](O)[C@H]3O)[C@@H](N)C[C@H]2NC(=O)[C@@H](O)CN)OC[C@]1(C)O
[1]
  mutagenic call: inactive; negative
[2]
  mutagenic call: inactive; negative
[3]
  mutagenic call: inactive; negative
Test System: E. COLI, Strain/Indicator: WP2 UVRA, Metabolic Activation: NONE, Method: PREINCUBATION
  mutagenic call: inactive; negative

## CCCCN(C)N=O
Test System: AMES SALMONELLA TYPHIMURIUM, Strain/Indicator: TA100, Metabolic Activation: RAT, LIVER, S-9, KC500 OR PHENOBARBITAL, Method: LIQUID SUSPENSION
  mutagenic call: active; positive

## CCCCC(CC)COC(=O)c1ccc(C(=O)OCC(CC)CCCC)cc1 (stereo unspecified)
[4]
  mutagenic call: inactive; negative
Test System: AMES SALMONELLA TYPHIMURIUM, Strain/Indicator: TA98, Metabolic Activation: RAT, LIVER, S-9, Method: STANDARD PLATE
  mutagenic call: inactive; negative
[5]
  mutagenic call: inactive; negative
Test System: AMES SALMONELLA TYPHIMURIUM, Strain/Indicator: TA100, Metabolic Activation: RAT, LIVER, S-9, Method: STANDARD PLATE
  mutagenic call: inactive; negative
Test System: AMES SALMONELLA TYPHIMURIUM, Strain/Indicator: TA1535, Metabolic Activation: NONE, Method: STANDARD PLATE
  mutagenic call: inactive; negative
Test System: AMES SALMONELLA TYPHIMURIUM, Strain/Indicator: TA1535, Metabolic Activation: RAT, LIVER, S-9, Method: STANDARD PLATE
  mutagenic call: inactive; negative
Test System: AMES SALMONELLA TYPHIMURIUM, Strain/Indicator: TA1537, Metabolic Activation: NONE, Method: STANDARD PLATE
  mutagenic call: inactive; negative
Test System: AMES SALMONELLA TYPHIMURIUM, Strain/Indicator: TA1537, Metabolic Activation: RAT, LIVER, S-9, Method: STANDARD PLATE
  mutagenic call: inactive; negative
Test System: AMES SALMONELLA TYPHIMURIUM, Strain/Indicator: TA1538, Metabolic Activation: NONE, Method: STANDARD PLATE
  mutagenic call: inactive; negative
Test System: AMES SALMONELLA TYPHIMURIUM, Strain/Indicator: TA1538, Metabolic Activation: RAT, LIVER, S-9, Method: STANDARD PLATE
  mutagenic call: inactive; negative
Test System: CHINESE HAMSTER OVARY, Strain/Indicator: CHO-K1-BH4 (HGPRT)/6-THIOGUANINE, Metabolic Activation: NONE
  mutagenic call: inactive; negative
Test System: CHINESE HAMSTER OVARY, Strain/Indicator: CHO-K1-BH4 (HGPRT)/6-THIOGUANINE, Metabolic Activation: RAT, LIVER, S-9
  mutagenic call: inactive; negative

## C=C(C)C(=O)OCCOC(=O)NCCC(C)CC(C)(C)CNC(=O)OCCOC(=O)C(=C)C (stereo unspecified)
Test System: AMES SALMONELLA TYPHIMURIUM, Strain/Indicator: TA97A, Metabolic Activation: NONE, Method: STANDARD PLATE
  mutagenic call: inactive; negative
Test System: AMES SALMONELLA TYPHIMURIUM, Strain/Indicator: TA97A, Metabolic Activation: RAT LIVER S-9, PHENOBARBITAL AND BETA-NAPHTHAFLAVONE, Method: STANDARD PLATE
  mutagenic call: inactive; negative
[4]
  mutagenic call: inactive; negative
Test System: AMES SALMONELLA TYPHIMURIUM, Strain/Indicator: TA98, Metabolic Activation: RAT LIVER S-9, PHENOBARBITAL AND BETA-NAPHTHAFLAVONE, Method: STANDARD PLATE
  mutagenic call: inactive; negative
[5]
  mutagenic call: inactive; negative
Test System: AMES SALMONELLA TYPHIMURIUM, Strain/Indicator: TA100, Metabolic Activation: RAT LIVER S-9, PHENOBARBITAL AND BETA-NAPHTHAFLAVONE, Method: STANDARD PLATE
  mutagenic call: inactive; negative
Test System: AMES SALMONELLA TYPHIMURIUM, Strain/Indicator: TA102, Metabolic Activation: NONE, Method: STANDARD PLATE
  mutagenic call: inactive; negative
Test System: AMES SALMONELLA TYPHIMURIUM, Strain/Indicator: TA102, Metabolic Activation: RAT LIVER S-9, PHENOBARBITAL AND BETA-NAPHTHAFLAVONE, Method: STANDARD PLATE
  mutagenic call: inactive; negative
Test System: CHINESE HAMSTER V-79, Strain/Indicator: V79 (HPRT)/6-THIOGUANINE, Metabolic Activation: NONE
  mutagenic call: inactive; negative

## Nc1nc(N)nc(N)n1
End Point: IN VITRO CHROMOSOMAL ABERRATIONS, Test System: CHINESE HAMSTER OVARY CELLS, Metabolic Activation: NONE
  mutagenic call: inactive; negative
End Point: IN VITRO CHROMOSOMAL ABERRATIONS, Test System: CHINESE HAMSTER OVARY CELLS, Metabolic Activation: RAT, LIVER, S-9, AROCLOR 1254
  mutagenic call: inactive; negative
Test System: AMES SALMONELLA TYPHIMURIUM, Strain/Indicator: TA98, Metabolic Activation: HAMSTER, LIVER, S-9, AROCLOR 1254, Method: PREINCUBATION
  mutagenic call: inactive; negative
[1]
  mutagenic call: inactive; negative
Test System: AMES SALMONELLA TYPHIMURIUM, Strain/Indicator: TA98, Metabolic Activation: RAT, LIVER, S-9, AROCLOR 1254, Method: PREINCUBATION
  mutagenic call: inactive; negative
Test System: AMES SALMONELLA TYPHIMURIUM, Strain/Indicator: TA100, Metabolic Activation: HAMSTER, LIVER, S-9, AROCLOR 1254, Method: PREINCUBATION
  mutagenic call: inactive; negative
[2]
  mutagenic call: inactive; negative
Test System: AMES SALMONELLA TYPHIMURIUM, Strain/Indicator: TA100, Metabolic Activation: RAT, LIVER, S-9, AROCLOR 1254, Method: PREINCUBATION
  mutagenic call: inactive; negative
Test System: AMES SALMONELLA TYPHIMURIUM, Strain/Indicator: TA1535, Metabolic Activation: HAMSTER, LIVER, S-9, AROCLOR 1254, Method: PREINCUBATION
  mutagenic call: inactive; negative
[3]
  mutagenic call: inactive; negative
Test System: AMES SALMONELLA TYPHIMURIUM, Strain/Indicator: TA1535, Metabolic Activation: RAT, LIVER, S-9, AROCLOR 1254, Method: PREINCUBATION
  mutagenic call: inactive; negative
Test System: AMES SALMONELLA TYPHIMURIUM, Strain/Indicator: TA1537, Metabolic Activation: HAMSTER, LIVER, S-9, AROCLOR 1254, Method: PREINCUBATION
  mutagenic call: inactive; negative
Test System: AMES SALMONELLA TYPHIMURIUM, Strain/Indicator: TA1537, Metabolic Activation: NONE, Method: PREINCUBATION
  mutagenic call: inactive; negative
Test System: AMES SALMONELLA TYPHIMURIUM, Strain/Indicator: TA1537, Metabolic Activation: RAT, LIVER, S-9, AROCLOR 1254, Method: PREINCUBATION
  mutagenic call: inactive; negative
Test System: UDS RAT HEPATOCYTES, Strain/Indicator: BROMODEOXYURIDINE INCORP, Metabolic Activation: NONE, Method: FLOW CYTOMETRIC ANALYSIS
  mutagenic call: inactive; negative
Test System: UDS RAT HEPATOCYTES, Strain/Indicator: THY INCORP, Metabolic Activation: NONE, Method: AUTORADIOGRAPHY
  mutagenic call: inactive; negative
